# Measured values reported in patent publication US9498436B2, “Testosterone solutions for the treatment of testosterone deficiency” (INNOTESTO BVBA, priority 2010, dated 2016).
# Several values for one entry are separate records, joined by “and”; a condition that tells them apart may be missing. Equal values may be shown once.
# Assay: Testosterone serum level after oromucosal (buccal) administration of testosterone solution, chemiluminescent-immunoassay
# Conditions: for mean increase of the testosterone level per 500 μg T: 30 minutes after buccal administration; for increase per 100 μg T / increase per 500 μg T: buccal solution; for concentration at 30 min: increase of testosterone serum level, 30 minutes post dose, volunteer, baseline 10-15 nmol/L
# Protocol: Devices used in the experimental oromucosal application of the solutions of the invention were glass bottles with a spray device from Valois, type VP7, allowing the administration of volumes of 25 μL, 50 μL and 100 μL
# Blood samples were taken and analysed for testosterone serum levels using a chemiluminescent-immunoassay (Access Beckman Coulter).
# • Testosterone levels were measured 30 minutes after buccal administration of the testosterone solution by a spray pump with a spray volume of 25 μl, 50 μl or 100 μl. • Oromucosal (buccal,sublingual) testosterone solutions administered were in 17 cases a solution in water containing as main constituents testosterone and RAMEB and in 7 cases testosterone in a solution containing as main excipient isopropyl myristate.
# [1] = dose 125 μg T, 30 minutes after administration
# [2] = dose 300 μg T, 30 minutes after administration
# [3] = dose 375 μg T, 30 minutes after administration, separate applications
# [4] = dose 400 μg T, 30 minutes after administration, separate applications
# [5] = dose 570 μg T, 30 minutes after administration, separate applications
# [6] = dose 1000 μg T, 30 minutes after administration
# [7] = dose 1150 μg T, 30 minutes after administration
# [8] = mean of 24 buccal applications (17 aqueous, 7 non-aqueous), 30 minutes after administration
# [9] = oromucosal, general statement in description
structure (smiles),measurement,setting,value
C[C@]12CC[C@H]3[C@@H](CCC4=CC(=O)CC[C@@]43C)[C@@H]1CC[C@@H]2O [testosterone],testosterone (T) serum level,"Volunteer M, sample M3, 10.00 am, aqueous solution 500 μg T at 7.30 am, 375 μg T at 9.30 and 11.30 am",25.45 nmol/L
same,testosterone (T) serum level,"Volunteer M, sample M4, 12.00 am, aqueous solution 500 μg T at 7.30 am, 375 μg T at 9.30 and 11.30 am",18.81 nmol/L
same,mean increase of the testosterone level per 500 μg T,"aqueous formulations (testosterone and RAMEB, ethanol 15% v/v), 17 cases",15.2 nmol/L
same,increase per 100 μg T,[1],2.7 nmol/L
same,increase per 500 μg T,[1],14 nmol/L
same,increase per 100 μg T,[2],4.2 nmol/L
same,increase per 500 μg T,[2],21 nmol/L
same,increase per 100 μg T,[3],4.3 nmol/L and 2.4 nmol/L
same,increase per 500 μg T,[3],22 nmol/L and 12 nmol/L
same,increase per 100 μg T,[4],3.0 nmol/L and 2.0 nmol/L
same,increase per 500 μg T,[4],15 nmol/L and 10 nmol/L
same,increase per 100 μg T,[5],4.0 nmol/L and 4.4 nmol/L
same,increase per 500 μg T,[5],20 nmol/L and 22 nmol/L
same,increase per 100 μg T,[6],3.8 nmol/L
same,increase per 500 μg T,[6],19 nmol/L
same,increase per 100 μg T,[7],3.1 nmol/L
same,increase per 500 μg T,[7],16 nmol/L
same,concentration at 30 min,"human, serum, other: buccal (oromucosal spray), 400 μg, non-aqueous solution, 50 μL=400 μg testosterone buccally",18 nM
same,concentration at 30 min,"human, serum, other: buccal (oromucosal spray), 500 μg, aqueous solution, 100 μL (=500 μg testosterone) buccally",20 nM
same,concentration at 30 min,"human, serum, other: buccal (oromucosal spray), 800 μg, non-aqueous solution, 100 μL=800 μg testosterone buccally",36 nM
same,concentration at 30 min,"human, serum, other: buccal (oromucosal spray), 1000 μg, aqueous solution, 2×100 μL (=1000 μg testosterone) buccally",38 nM
same,concentration at 0 h,"human, serum, other: buccal (oromucosal spray), testosterone (T) serum level, Volunteer D, sample D1, 7.30 am (time of first dose), aqueous solution 500 μg T at 7.30, 9.30, 11.30 am",11.9 nM
same,concentration at 0.5 h,"human, serum, other: buccal (oromucosal) solution, spray, 500 μg, testosterone (T) serum level, Volunteer D, sample D2, 8.00 am, aqueous solution 500 μg T at 7.30, 9.30, 11.30 am",18.6 nM
same,concentration at 2.5 h,"human, serum, other: buccal (oromucosal) solution, spray, 500 μg, testosterone (T) serum level, Volunteer D, sample D3, 10.00 am, aqueous solution 500 μg T at 7.30, 9.30, 11.30 am",28.1 nM
same,concentration at […],"human, serum, other: buccal (oromucosal) solution, spray, 500 μg, testosterone (T) serum level, Volunteer D, sample D4, 12.00 am, aqueous solution 500 μg T at 7.30, 9.30, 11.30 am",28.7 nM
same,concentration at 0 h,"human, serum, other: buccal (oromucosal) solution, spray, 500 μg, testosterone (T) serum level, Volunteer M, sample M1, 7.30 am (time of first dose), aqueous solution 500 μg T at 7.30 am, 375 μg T at 9.30 and 11.30 am",8.72 nM
same,concentration at 0.5 h,"human, serum, other: buccal (oromucosal) solution, spray, 500 μg, testosterone (T) serum level, Volunteer M, sample M2, 8.00 am, aqueous solution 500 μg T at 7.30 am, 375 μg T at 9.30 and 11.30 am",25.5 nM
same,mean (SD) increase per 100 μg T,[8],3.1 nmol/L and 3.1(0.9) nmol/L
same,mean (SD) increase per 500 μg T,[8],15.7 nmol/L and 15.7(4.6) nmol/L
same,mean increase of the testosterone level per 500 μg T,"non-aqueous formulations (isopropyl myristate, ethanol 15% v/v), 7 cases",16.7 nmol/L
same,mean increase in testosterone serum level for each 0.1 mg testosterone dose administered,[9],about 3 nmol/L
same,mean increase in testosterone serum level for each 0.5 mg testosterone dose administered,[9],about 15 nmol/L
